Data as given in patent US5080906A, “Method and composition for oral administration of N-acetylcysteine” (Zambon Group, S.p.A., priority 1989, dated 1992).
Where a name gives a salt, the structure may show the parent alone. Read-outs that look alike come from different tables or passages of the source.

Key:
[1] = design: species or system Male Beagle dogs; settings: dog, in vivo, po, 50 mg/kg
Method: (§1) Male Beagle dogs were fasted overnight and were divided into 4 groups of 4 animals each. The four groups were treated orally with different NAC solutions according to the following scheme: […] For each group of animals the dose of NAC ([…]) contained an amount of ^14 C-NAC equal to 20 μCi/kg. Blood samples were withdrawn by a heparinized syringe just before the treatment and 10, 20, 30, 45, 60, 120, 240, 360, 480 and 1,440 minutes after treatment. The blood samples were treated and stored according to the same procedure described in Example 1.

[2] = Total radioactivity in plasma after oral 3H-NAC in rats; type: in vivo, Sprague Dawley rats; settings: rat, 300 mg/kg NAC (100 μCi/kg 3H-NAC), 0-24 h
Method: Sprague Dawley rats after overnight fast were divided into 7 groups of 33 animals each. These seven groups of animals were treated with different NAC solutions by oral route according to the following scheme:
Group 1-NAC (300 mg/kg) dissolved in water (10 ml/kg)
Group 5-NAC (300 mg/kg) and THAM (222.7 mg/kg) dissolved in water (10 ml/kg); molar ratio 1:1
For each group of animals the NAC dose (300 mg/kg) contained ^3 H-NAC in an amount yielding 100 μCi/kg. Blood samples were withdrawn just before the treatment and 15, 20, 45, 60, 90, 120, 240, 360, 480 and 1,440 minutes after treatment, via a heparinized syringe. The blood was immediately transferred into plastic tubes containing sodium dithionite (1 mg/5 μl) and 0.02N sodium EDTA (200 μl ). The plasma was separated by centrifugation at 5,000×g at 4° C. for 20 minutes and the samples thus obtained were stored at -20° C. until the analysis.
Samples of plasma (50 μl) were added to Lumagel (10 ml), were stirred and were then allowed to stand in the scintillation counter (Beckman LS 8100) at 15° C. for 4 hours. Radioactivity was measured after the stabilization time.
The total radioactivity in plasma after administration of 300 mg/kg of NAC (containing 100 μCi/kg of ^3 H-NAC) (group 1) and after administration of the same amount of NAC with THAM in the ratio 1:1 (group 5) are reported in Table 2.

[3] = Plasma level of unmodified NAC after oral administration of NAC solutions to rats (GC-MS); type: in vivo, Sprague Dawley rats; settings: rat, 300 mg/kg NAC (100 μCi/kg 3H-NAC), 0-8 h, * p < 0.005 (Student's t) for NAC-THAM 1:1, read-out: AUC0-8 h, plasma NAC (total unmodified NAC)
Method: Sprague Dawley rats after overnight fast were divided into 7 groups of 33 animals each. These seven groups of animals were treated with different NAC solutions by oral route according to the following scheme: […] Blood samples were withdrawn just before the treatment and 15, 20, 45, 60, 90, 120, 240, 360, 480 and 1,440 minutes after treatment, via a heparinized syringe. The blood was immediately transferred into plastic tubes containing sodium dithionite (1 mg/5 μl) and 0.02N sodium EDTA (200 μl ). The plasma was separated by centrifugation at 5,000×g at 4° C. for 20 minutes and the samples thus obtained were stored at -20° C. until the analysis. […] The samples were kept at 37° C. for one hour and then an acetone:formic acid=4:1 (1 ml) mixture was added. The proteins were separated at 20,000×g for 20 minutes by centrifugation. To the supernatant 2M HCl (200 μl) was added and then the NAC was extracted twice with ethyl acetate (6 ml). […] At the end of the reaction, excess isopropanol was eliminated and the samples were reacted with 3:1 ethyl acetate:pentafluoropropionic anhydride (200 μl) at 60° C. for 30 minutes. […] In Table 1 the plasma concentrations of NAC, expressed as AUC0-8h, the total NAC detected expressed as g/l, are reported for each group of animals and treatment regimen.

in vivo = assay: in vivo; design: species or system Male Beagle dogs; settings: dog, po, 50 mg/kg
Method: as §1

[4] = result in words; cited from earlier work
[5] = THAM salt; result in words; cited from earlier work

| Structure (SMILES) | AUC0-24 h, total radioactivity in plasma [1] [mghl^-1] | AUC0-24 h, total radioactivity in plasma [2] [mgh/l] | AUC(0-t) at 8 h [3] [ng·h/mL] | AUC(0-inf) (in vivo; AUC0-.infin., plasma NAC (unmodified)) [ng·h/mL] | solubility [4] | bioavailability [5] | total amount of absorbed NAC compared with NAC as such [1] | AUC0-.infin., plasma NAC (unmodified) (in vivo) [mgh/l] | amount of unmodified NAC in plasma compared with NAC alone (in vivo) |
| --- | --- | --- | --- | --- | --- | --- | --- | --- | --- |
| CC(=O)N[C@@H](CS)C(=O)O [NAC, N-acetylcysteine] | 1864.13 ± 856.57 | 4048.3 ± 105.9 | 105000 ± 3000 | 57500 ± 7290 | soluble |  |  |  |  |
| C[C@@H]1O[C@@H]1P(=O)(O)O [THAM salt of the antibiotic Fosfomycin] |  |  |  |  |  | better bioavailability |  |  |  |
| CC(=O)N[C@@H](CS)C(=O)O [NAC-lysinate, NAC lysinate] | 1247.23 ± 185.18 |  |  |  |  |  | not different | 73.37 ± 10.33 | do not provide plasma levels meaningfully different from those of NAC itself |
